Tested on: plants
Assay: Test D pre-emergence, other plants of Tables D1 and D3
Assay type: in vivo
Conditions: preemergent, 20 DAA
Summary of the method: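 Damage was rated visually from 0 (none) to 100 (total), at 20 DAA for pre-emergence and 15 d for post-emergence. Plants grew from safener-treated seed in a glasshouse at 24/18° C. or 20/16° C. day/night, 65% humidity, watered twice daily.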

## CCn1nc([C@H]2CN(C)C(=O)[C@@H]2C(=O)Nc2cccc(F)c2F)c2cc(F)ccc21 [Compound 8]
Rate 15
  damage to plant (100=total damage to plant; 0=no damage to plant), ABUTH: 0
  damage to plant (100=total damage to plant; 0=no damage to plant), AMARE: 0
  damage to plant (100=total damage to plant; 0=no damage to plant), BIDPI: 0
  damage to plant (100=total damage to plant; 0=no damage to plant), BRAPL: 20
  damage to plant (100=total damage to plant; 0=no damage to plant), CYPES: 0
  damage to plant (100=total damage to plant; 0=no damage to plant), DIGSA: 10
  damage to plant (100=total damage to plant; 0=no damage to plant), ECHCG: 30
  damage to plant (100=total damage to plant; 0=no damage to plant), ELEIN: 0
  damage to plant (100=total damage to plant; 0=no damage to plant), EPHHL: 0
  damage to plant (100=total damage to plant; 0=no damage to plant), GLXMA: 0
  damage to plant (100=total damage to plant; 0=no damage to plant), IPOHE: 0
  damage to plant (100=total damage to plant; 0=no damage to plant), ORYSA: 0
  damage to plant (100=total damage to plant; 0=no damage to plant), PANMI: 0
  damage to plant (100=total damage to plant; 0=no damage to plant), SETFA: 10
  damage to plant (100=total damage to plant; 0=no damage to plant), SIDSP: 0
  damage to plant (100=total damage to plant; 0=no damage to plant), SORVU: 0
Rate 30
  damage to plant (100=total damage to plant; 0=no damage to plant), ABUTH: 0
  damage to plant (100=total damage to plant; 0=no damage to plant), AMARE: 0
  damage to plant (100=total damage to plant; 0=no damage to plant), BIDPI: 0
  damage to plant (100=total damage to plant; 0=no damage to plant), BRAPL: 70
  damage to plant (100=total damage to plant; 0=no damage to plant), CYPES: 0
  damage to plant (100=total damage to plant; 0=no damage to plant), DIGSA: 90
  damage to plant (100=total damage to plant; 0=no damage to plant), ECHCG: 90
  damage to plant (100=total damage to plant; 0=no damage to plant), ELEIN: 0
  damage to plant (100=total damage to plant; 0=no damage to plant), EPHHL: 0
  damage to plant (100=total damage to plant; 0=no damage to plant), GLXMA: 0
  damage to plant (100=total damage to plant; 0=no damage to plant), IPOHE: 0
  damage to plant (100=total damage to plant; 0=no damage to plant), ORYSA: 0
  damage to plant (100=total damage to plant; 0=no damage to plant), PANMI: 0
  damage to plant (100=total damage to plant; 0=no damage to plant), SETFA: 80
  damage to plant (100=total damage to plant; 0=no damage to plant), SIDSP: 0
Rate 60
  damage to plant (100=total damage to plant; 0=no damage to plant), ABUTH: 0
  damage to plant (100=total damage to plant; 0=no damage to plant), AMARE: 0
  damage to plant (100=total damage to plant; 0=no damage to plant), BIDPI: 0
  damage to plant (100=total damage to plant; 0=no damage to plant), BRAPL: 70
  damage to plant (100=total damage to plant; 0=no damage to plant), CYPES: 0
  damage to plant (100=total damage to plant; 0=no damage to plant), DIGSA: 100
  damage to plant (100=total damage to plant; 0=no damage to plant), ECHCG: 90
  damage to plant (100=total damage to plant; 0=no damage to plant), ELEIN: 0
  damage to plant (100=total damage to plant; 0=no damage to plant), EPHHL: 0
  damage to plant (100=total damage to plant; 0=no damage to plant), GLXMA: 0
  damage to plant (100=total damage to plant; 0=no damage to plant), IPOHE: 0
  damage to plant (100=total damage to plant; 0=no damage to plant), ORYSA: 0
  damage to plant (100=total damage to plant; 0=no damage to plant), PANMI: 0
  damage to plant (100=total damage to plant; 0=no damage to plant), SETFA: 70
  damage to plant (100=total damage to plant; 0=no damage to plant), SIDSP: 0
Rate 130
  damage to plant (100=total damage to plant; 0=no damage to plant), ABUTH: 0
  damage to plant (100=total damage to plant; 0=no damage to plant), AMARE: 0
  damage to plant (100=total damage to plant; 0=no damage to plant), BIDPI: 0
  damage to plant (100=total damage to plant; 0=no damage to plant), BRAPL: 80
  damage to plant (100=total damage to plant; 0=no damage to plant), CYPES: 0
  damage to plant (100=total damage to plant; 0=no damage to plant), DIGSA: 100
  damage to plant (100=total damage to plant; 0=no damage to plant), ECHCG: 90
  damage to plant (100=total damage to plant; 0=no damage to plant), ELEIN: 0
  damage to plant (100=total damage to plant; 0=no damage to plant), EPHHL: 0
  damage to plant (100=total damage to plant; 0=no damage to plant), GLXMA: 0
  damage to plant (100=total damage to plant; 0=no damage to plant), IPOHE: 0
  damage to plant (100=total damage to plant; 0=no damage to plant), ORYSA: 0
  damage to plant (100=total damage to plant; 0=no damage to plant), PANMI: 0
  damage to plant (100=total damage to plant; 0=no damage to plant), SETFA: 90
  damage to plant (100=total damage to plant; 0=no damage to plant), SIDSP: 0
  damage to plant (100=total damage to plant; 0=no damage to plant), SORVU: 10
Rate 250
  damage to plant (100=total damage to plant; 0=no damage to plant), ABUTH: 0
  damage to plant (100=total damage to plant; 0=no damage to plant), AMARE: 0
  damage to plant (100=total damage to plant; 0=no damage to plant), BIDPI: 0
  damage to plant (100=total damage to plant; 0=no damage to plant), BRAPL: 90
  damage to plant (100=total damage to plant; 0=no damage to plant), CYPES: 0
  damage to plant (100=total damage to plant; 0=no damage to plant), DIGSA: 100
  damage to plant (100=total damage to plant; 0=no damage to plant), ECHCG: 90
  damage to plant (100=total damage to plant; 0=no damage to plant), ELEIN: 0
  damage to plant (100=total damage to plant; 0=no damage to plant), EPHHL: 0
  damage to plant (100=total damage to plant; 0=no damage to plant), GLXMA: 0
  damage to plant (100=total damage to plant; 0=no damage to plant), IPOHE: 0
  damage to plant (100=total damage to plant; 0=no damage to plant), ORYSA: 0
  damage to plant (100=total damage to plant; 0=no damage to plant), PANMI: 0
  damage to plant (100=total damage to plant; 0=no damage to plant), SETFA: 100
  damage to plant (100=total damage to plant; 0=no damage to plant), SIDSP: 0
Rate 500
  damage to plant (100=total damage to plant; 0=no damage to plant), ABUTH: 0
  damage to plant (100=total damage to plant; 0=no damage to plant), AMARE: 0
  damage to plant (100=total damage to plant; 0=no damage to plant), BIDPI: 0
  damage to plant (100=total damage to plant; 0=no damage to plant), BRAPL: 100
  damage to plant (100=total damage to plant; 0=no damage to plant), CYPES: 0
  damage to plant (100=total damage to plant; 0=no damage to plant), DIGSA: 100
  damage to plant (100=total damage to plant; 0=no damage to plant), ECHCG: 100
  damage to plant (100=total damage to plant; 0=no damage to plant), ELEIN: 0
  damage to plant (100=total damage to plant; 0=no damage to plant), EPHHL: 70
  damage to plant (100=total damage to plant; 0=no damage to plant), GLXMA: 0
  damage to plant (100=total damage to plant; 0=no damage to plant), IPOHE: 0
  damage to plant (100=total damage to plant; 0=no damage to plant), ORYSA: 0
  damage to plant (100=total damage to plant; 0=no damage to plant), PANMI: 30
  damage to plant (100=total damage to plant; 0=no damage to plant), SETFA: 100
  damage to plant (100=total damage to plant; 0=no damage to plant), SIDSP: 0
